Measured values taken from US9029386B2, “Pyridine derivatives useful as kinase inhibitors” (YM Biosciences Australia Pty Ltd, priority 2006, dated 2015).

How the values were obtained:
[1] = target: T1, kinase domain of human CSF1-R (Homo sapiens, UniProt P07333); assay: Alphascreen protein tyrosine kinase assay, CSF-1R; type: biochemical
T1 construct: from codon I553 to Q961; made in house; host or cells: Sf9 insect cells (baculovirus)
T1 sequence (P07333 553-961): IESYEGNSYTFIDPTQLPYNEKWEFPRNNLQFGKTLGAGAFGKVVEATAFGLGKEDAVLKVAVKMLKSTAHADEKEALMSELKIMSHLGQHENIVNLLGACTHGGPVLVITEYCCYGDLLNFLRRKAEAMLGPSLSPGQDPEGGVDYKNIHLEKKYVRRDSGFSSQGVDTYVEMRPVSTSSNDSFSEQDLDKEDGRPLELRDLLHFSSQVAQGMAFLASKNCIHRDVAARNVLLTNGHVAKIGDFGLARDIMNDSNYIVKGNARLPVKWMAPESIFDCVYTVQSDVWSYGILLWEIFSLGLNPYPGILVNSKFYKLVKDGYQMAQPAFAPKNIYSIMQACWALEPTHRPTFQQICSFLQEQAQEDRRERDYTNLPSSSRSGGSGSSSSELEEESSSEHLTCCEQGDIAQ
Protocol: (§1) For screening purposes, compounds were diluted in 96 well plates at a concentration of 20 μM. Plates were warmed at 37° C. for 30 minutes before assay.
The kinase domain of human CSF1-R from codon I553 to Q961 was cloned into the pDEST-20 expression vector (Invitrogen). The CSF1-R plasmid was then transformed into competent DH10Bac cells (Gibco), and the recombinant baculovirus produced prepared for transfection into Sf9 insect cells.
(§2) Baculovirus preparations from each of construct were infected into five liters of SF9 cells (Invitrogen) grown in SF-900 medium (Invitrogen) to a cell density of approximately 1−2×10^6 cells/ml. […] Cells were harvested and lysed. Tyrosine kinase domains were purified by affinity chromatography on a glutathione-agarose column (Scientifix Pty. Ltd. catalog #: GSH-200).
(§3) Kinase assays were performed in 384 well Optiplates (Packard) using an Alphascreen Protein Tyrosine Kinase kit. […] Alphascreen phosphotyrosine acceptor beads followed by streptavidin donor beads were added under subdued light. The Alphascreen plates were read on a Packard Fusion Alpha. Inhibitors were added to the assays thirty minutes prior to the addition of ATP. Inhibitors were added in aqueous DMSO, with DMSO concentrations never exceeding 1%.

[2] = target: T2, kinase domain of human c-kit (Homo sapiens, UniProt P10721); assay: Alphascreen protein tyrosine kinase assay, c-KIT; type: biochemical
T2 construct: from codon M552 to end; made in house; host or cells: Sf9 insect cells (baculovirus)
Protocol: as §1
The kinase domain of human c-kit from codon M552 to end was cloned into the pDEST-20 expression vector (Invitrogen). The c-kit plasmid was then transformed into competent DH10Bac cells (Gibco), and the recombinant baculovirus produced prepared for transfection into Sf9 insect cells.
as §2, §3

PDGFR β tyrosine kinase = target: T3, PDGFR β tyrosine kinase (Homo sapiens, UniProt P09619); assay: Alphascreen protein tyrosine kinase assay, PDGFRβ; type: biochemical
T3 construct: purchased Upstate Cell Signalling Solutions, CA, USA 14-463

KDR protein kinase = target: T4, KDR protein kinase (Homo sapiens, UniProt P35968); assay: Alphascreen protein tyrosine kinase assay, KDR; type: biochemical
T4 construct: purchased Millipore 14-630M
Protocol: as §1
FLT-3 and PDGFR β tyrosine kinase enzymes were purchased from Upstate Cell Signalling Solutions, CA, USA (flt-3 catalog #: 14-500 and PDGFR β catalog #: 14-463). KDR protein kinase enzyme was purchased from Millipore (catalogue #14-630M).
Kinase assays were performed in 384 well Optiplates (Packard) using an Alphascreen Protein Tyrosine Kinase kit. […] The biotinylated peptides Biotin-[…]-NH2 for c-KIT and PDGFRβ and Biotin-[…]-NH2 for CSF1-R and FLT-3 (final concentration 0.1-3 μM) were used as substrates. Alphascreen phosphotyrosine acceptor beads followed by streptavidin donor beads were added under subdued light. The Alphascreen plates were read on a Packard Fusion Alpha. Inhibitors were added to the assays thirty minutes prior to the addition of ATP. Inhibitors were added in aqueous DMSO, with DMSO concentrations never exceeding 1%.

mNFS-60 = assay: Cellular assay (Alamar Blue), mNFS-60 with human M-CSF; type: cell-based; conditions: human M-CSF at 20 ng/ml, 72 hr
Protocol: (§4) Cells for the assays were prepared by harvesting cells from culture, and then diluting them in the appropriate growth medium to between 40,000 cell/mL and 600,000 cell/mL, depending on the cell line.
(§5) The compounds to be tested were added (104, 10× final concentration) to a flat bottomed 96-well plate. The cellular suspension (80 μL per well) was added, and one hour later the growth factor was added (human M-CSF at 20 ng/ml for mNFS-60, mouse IL-3 at 5 ng/ml for Baf3-WT). The plate was then incubated for 72 hr at 37° C., 5% CO2. Alamar Blue (10^4 per well) was added and the plates returned to the incubator for a further 4-8 hours.
(§6) The plates were then read using a fluorescence plate reader at excitation 544 nm and emission 590 nm.

Baf3-WT = assay: Cellular assay (Alamar Blue), Baf3-WT with mouse IL-3; type: cell-based; conditions: mouse IL-3 at 5 ng/ml, 72 hr
Protocol: as §4, §5, §6

T2 sequence (P10721 552-976 limits assumed): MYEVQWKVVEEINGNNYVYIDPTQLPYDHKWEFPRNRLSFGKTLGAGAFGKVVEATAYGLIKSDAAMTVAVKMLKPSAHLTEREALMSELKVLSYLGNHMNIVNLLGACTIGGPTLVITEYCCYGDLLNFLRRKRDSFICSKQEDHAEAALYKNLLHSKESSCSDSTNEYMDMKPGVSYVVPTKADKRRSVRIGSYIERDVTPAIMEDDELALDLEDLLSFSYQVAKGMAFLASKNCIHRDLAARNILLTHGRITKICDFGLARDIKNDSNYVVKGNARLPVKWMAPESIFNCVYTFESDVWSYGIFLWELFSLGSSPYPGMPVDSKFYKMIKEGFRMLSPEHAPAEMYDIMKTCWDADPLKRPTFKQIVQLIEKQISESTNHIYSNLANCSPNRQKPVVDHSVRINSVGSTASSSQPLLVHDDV
T4 sequence (P35968 20-1356): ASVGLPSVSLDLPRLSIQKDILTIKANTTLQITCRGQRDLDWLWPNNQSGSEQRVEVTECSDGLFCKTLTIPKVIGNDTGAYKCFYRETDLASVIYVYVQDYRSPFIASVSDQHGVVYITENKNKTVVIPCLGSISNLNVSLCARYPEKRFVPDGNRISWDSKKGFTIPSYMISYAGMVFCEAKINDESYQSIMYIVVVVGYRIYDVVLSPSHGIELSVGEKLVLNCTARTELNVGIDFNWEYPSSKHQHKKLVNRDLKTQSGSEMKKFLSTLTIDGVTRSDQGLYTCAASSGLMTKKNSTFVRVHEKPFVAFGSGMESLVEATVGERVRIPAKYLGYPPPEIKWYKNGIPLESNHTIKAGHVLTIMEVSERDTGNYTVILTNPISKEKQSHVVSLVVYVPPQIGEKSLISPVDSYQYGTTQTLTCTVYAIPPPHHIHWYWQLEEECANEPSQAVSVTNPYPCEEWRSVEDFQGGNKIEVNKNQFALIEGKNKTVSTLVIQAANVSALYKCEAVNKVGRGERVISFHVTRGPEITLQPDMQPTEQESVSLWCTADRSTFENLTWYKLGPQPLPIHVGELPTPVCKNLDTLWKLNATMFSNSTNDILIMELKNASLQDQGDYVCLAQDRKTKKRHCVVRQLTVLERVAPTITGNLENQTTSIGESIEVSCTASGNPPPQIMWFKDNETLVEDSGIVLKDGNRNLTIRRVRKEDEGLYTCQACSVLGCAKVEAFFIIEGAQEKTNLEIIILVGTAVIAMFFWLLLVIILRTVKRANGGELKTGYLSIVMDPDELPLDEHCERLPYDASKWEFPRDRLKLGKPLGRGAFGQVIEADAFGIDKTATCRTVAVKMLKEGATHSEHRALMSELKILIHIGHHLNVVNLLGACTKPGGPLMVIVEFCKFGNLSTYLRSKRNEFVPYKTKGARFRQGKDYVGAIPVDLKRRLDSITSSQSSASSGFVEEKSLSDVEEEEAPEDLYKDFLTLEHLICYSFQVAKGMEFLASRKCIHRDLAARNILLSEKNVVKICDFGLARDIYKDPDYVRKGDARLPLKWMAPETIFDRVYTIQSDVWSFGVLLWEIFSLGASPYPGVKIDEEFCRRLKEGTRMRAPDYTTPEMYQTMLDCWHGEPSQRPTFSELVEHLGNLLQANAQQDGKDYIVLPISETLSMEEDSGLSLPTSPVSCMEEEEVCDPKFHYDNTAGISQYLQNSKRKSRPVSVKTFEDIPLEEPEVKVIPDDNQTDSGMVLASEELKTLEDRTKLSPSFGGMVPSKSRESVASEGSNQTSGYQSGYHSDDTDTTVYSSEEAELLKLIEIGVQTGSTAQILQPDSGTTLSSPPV
T3 sequence (P09619 33-1106): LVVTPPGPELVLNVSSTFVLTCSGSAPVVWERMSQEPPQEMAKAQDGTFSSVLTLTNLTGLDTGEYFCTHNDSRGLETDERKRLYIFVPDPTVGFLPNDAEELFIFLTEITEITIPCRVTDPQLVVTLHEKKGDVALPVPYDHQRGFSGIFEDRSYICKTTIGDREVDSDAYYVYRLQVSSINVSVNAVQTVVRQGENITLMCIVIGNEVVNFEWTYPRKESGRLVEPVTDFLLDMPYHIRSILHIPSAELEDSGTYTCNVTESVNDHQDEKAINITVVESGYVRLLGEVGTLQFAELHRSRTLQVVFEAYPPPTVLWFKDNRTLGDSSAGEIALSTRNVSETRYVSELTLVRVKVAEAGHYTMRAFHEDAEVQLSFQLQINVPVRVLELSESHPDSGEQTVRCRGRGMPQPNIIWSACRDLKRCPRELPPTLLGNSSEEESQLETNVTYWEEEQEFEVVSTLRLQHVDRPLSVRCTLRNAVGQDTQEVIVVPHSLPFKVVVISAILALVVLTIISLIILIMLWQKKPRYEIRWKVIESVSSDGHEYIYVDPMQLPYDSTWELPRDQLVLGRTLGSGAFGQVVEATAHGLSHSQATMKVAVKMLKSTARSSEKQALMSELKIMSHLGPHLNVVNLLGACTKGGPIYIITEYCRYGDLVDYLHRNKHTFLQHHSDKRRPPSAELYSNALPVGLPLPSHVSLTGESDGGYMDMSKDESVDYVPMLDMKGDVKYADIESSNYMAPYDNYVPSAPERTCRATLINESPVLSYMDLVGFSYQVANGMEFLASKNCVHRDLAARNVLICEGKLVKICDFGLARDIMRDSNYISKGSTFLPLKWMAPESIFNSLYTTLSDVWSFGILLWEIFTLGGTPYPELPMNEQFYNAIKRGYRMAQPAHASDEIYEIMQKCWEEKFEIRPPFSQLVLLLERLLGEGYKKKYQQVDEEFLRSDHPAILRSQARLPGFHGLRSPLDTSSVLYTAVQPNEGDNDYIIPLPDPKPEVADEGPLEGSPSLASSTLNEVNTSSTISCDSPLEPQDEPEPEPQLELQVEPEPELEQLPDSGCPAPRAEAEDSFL

Row | Structure (SMILES) | IC50 [1] [µM] | IC50 [2] [µM] | IC50 (PDGFR β tyrosine kinase) [µM] | IC50 (KDR protein kinase) [µM] | IC50 (mNFS-60) [µM] | IC50 (Baf3-WT) [µM]
1 | CC(Nc1cncc(-c2ccc(N)cc2)n1)c1cccc(NC(=O)c2cccnc2)c1 (racemic) [Compound 22] | < 0.1 | < 0.1 | < 1 |  |  | 
2 | COc1cc(-c2cncc(N[C@@H](C)c3cccc(NC(=O)c4cccnc4)c3)n2)ccc1O [Compound 3] |  | < 0.1 | < 0.1 |  |  | 
3 | C[C@H](Nc1cncc(-c2cccnc2)n1)c1cccc(NC(=O)c2cccnc2)c1 [Compound 11] | < 1 | < 1 | < 1 |  |  | 
4 | COc1cccc(-c2cncc(N[C@@H](C)c3cccc(NC(=O)c4cccnc4)c3)n2)c1 [Compound 13] | < 0.1 | < 0.1 | < 0.1 |  |  | 
5 | C[C@H](Nc1cncc(-c2cccc(NS(C)(=O)=O)c2)n1)c1cccc(NC(=O)c2cccnc2)c1 [Compound 16] | < 0.1 | < 0.1 | < 1 |  |  | 
6 | C[C@H](Nc1cncc(-c2cn[nH]c2)n1)c1cccc(NC(=O)c2cccnc2)c1 [Compound 19] | < 0.1 | < 0.1 | < 1 |  |  | 
7 | COc1ccc(-c2cncc(N[C@@H](C)c3cccc(NC(=O)c4cccnc4)c3)n2)c(OC)n1 [Compound 20] | < 0.1 | < 0.1 | < 1 |  |  | 
8 | COc1cc(-c2cncc(N[C@@H](C)c3cccc(NC(=O)c4cncc(C)c4)c3)n2)ccc1OP(=O)(O)O [Compound 35] | < 0.1 | < 1 | < 1 |  |  | 
9 | COc1cccc(-c2cncc(N[C@@H](C)c3cccc(NC(=O)c4ccc(C)nc4)c3)n2)c1 [Compound 36] | < 0.1 | < 0.1 | < 1 |  |  | 
10 | Cc1cncc(C(=O)Nc2cccc([C@H](C)Nc3cncc(Br)c3)c2)c1 [Compound 62] |  | < 0.1 | < 0.1 | < 0.1 | < 1 | > 10
11 | Cc1cncc(C(=O)Nc2cccc([C@H](C)Nc3cncc(-c4ccc(N5CCOCC5)cc4)n3)c2)c1 [Compound 65] | < 0.1 | < 0.1 | < 0.1 | < 0.1 | < 0.2 | > 10
12 | COc1cccc(-c2cncc(N[C@@H](C)c3cccc(NC(=O)c4cccc(C)c4)c3)n2)c1 [Compound 100] | < 0.1 | < 1 | < 0.1 | < 0.1 | < 0.2 | > 10
13 | C[C@H](Nc1cncc(Cl)n1)c1cccc(NC(=O)c2cccc(CN3CCN(C)CC3)c2)c1 [Compound 127] |  |  |  |  | < 1 | > 10
14 | Cc1ccc(NC(=O)c2cccc(C(F)(F)F)c2)cc1[C@H](C)Nc1cncc(Cl)n1 [Compound 169] | < 1 | < 1 |  | < 0.1 | < 0.2 | < 10
15 | C[C@H](Nc1cncc(-c2ccc(S(N)(=O)=O)cc2)n1)c1cccc(NC(=O)c2cccc(C(F)(F)F)c2)c1 [Compound 173] | < 0.1 |  |  |  | < 1 | > 10
16 | C[C@H](Nc1cncc(-c2ccc(CO)cc2)n1)c1cccc(NC(=O)c2cccc(C(F)(F)F)c2)c1 [Compound 174, (S)—N-(3-(1-(6-(4-(hydroxymethyl)phenyl)pyrazin-2-ylamino)ethyl)phenyl)-3-(trifluoromethyl)benzamide] | < 0.1 | < 0.1 |  | < 0.1 | < 0.2 | > 10
17 | C[C@H](Nc1cncc(-c2cccc(S(N)(=O)=O)c2)n1)c1cccc(NC(=O)c2cccc(C(F)(F)F)c2)c1 [Compound 178] | < 0.1 | < 1 |  | < 0.1 | < 0.2 | < 10
18 | Cc1cn(-c2cncc(N[C@@H](C)c3cccc(NC(=O)c4cccc(C(F)(F)F)c4)c3)n2)cn1 [Compound 179] | < 0.1 | < 0.1 |  | < 0.1 | < 0.2 | < 10
19 | C[C@H](Nc1cncc(-c2cccc(S(C)(=O)=O)c2)n1)c1cccc(NC(=O)c2cccc(C(F)(F)F)c2)c1 [Compound 181] | < 0.1 | < 0.1 |  | < 0.1 | < 0.2 | < 10
20 | C[C@H](Nc1cncc(-c2ccc(S(C)(=O)=O)cc2)n1)c1cccc(NC(=O)c2cccc(C(F)(F)F)c2)c1 [Compound 182] | < 0.1 | < 1 |  | < 0.1 | < 0.2 | > 10
21 | C[C@H](Nc1cncc(-c2ccc(NS(C)(=O)=O)cc2)n1)c1cccc(NC(=O)c2cccc(C(F)(F)F)c2)c1 [Compound 183] | < 0.1 | < 1 |  | < 0.1 | < 0.2 | < 10
22 | C[C@H](Nc1cncc(-c2cccc(CO)c2)n1)c1cccc(NC(=O)c2cccc(C(F)(F)F)c2)c1 [Compound 185] | < 0.1 | < 1 |  | < 0.1 | < 0.2 | < 10
23 | C[C@H](Nc1cncc(-c2ccc(N3CCOCC3)nc2)n1)c1cccc(NC(=O)c2cccc(C(F)(F)F)c2)c1 [Compound 187] | < 0.1 | < 1 |  | < 0.1 | < 0.2 | > 10
24 | Cc1cncn1-c1cncc(N[C@@H](C)c2cccc(NC(=O)c3cccc(C(F)(F)F)c3)c2)n1 [Compound 188] | < 0.1 | < 0.1 |  | < 0.1 | < 0.2 | > 10
25 | C[C@H](Nc1cncc(-c2cccc(N3CCOCC3)c2)n1)c1cccc(NC(=O)c2ccc(F)c(Cl)c2)c1 [Compound 189] | < 0.1 | < 1 |  | < 0.1 | < 0.2 | > 10
26 | COc1cccc(C(=O)Nc2cccc([C@H](C)Nc3cncc(-c4cccc(N5CCOCC5)c4)n3)c2)c1 [Compound 190] | < 0.1 | < 0.1 |  | < 0.1 | < 0.2 | > 10
27 | C[C@H](Nc1cncc(-c2ccc(CN3CCN(C)CC3)cc2)n1)c1cccc(NC(=O)c2cccc(C(F)(F)F)c2)c1 [Compound 191] | < 0.1 | < 0.1 |  | < 0.1 | < 0.2 | < 10
28 | Cc1ccc(F)c(C(=O)Nc2cccc([C@H](C)Nc3cncc(-c4cccc(N5CCOCC5)c4)n3)c2)c1 [Compound 192] | < 0.1 | < 0.1 |  | < 0.1 | < 0.2 | > 10
